{"source": "patent US20230105693A1", "about": "“ANTIMICROBIAL COMPOSITIONS” (Firmenich SA, priority 2020, published 2023)", "key": {"[1]": {"assay": "Equivalent alkane carbon number (EACN) in model microemulsion system", "format": "physicochemical", "conditions": "C10E5/water/isopropyl myristate model system, 3% wt perfume ingredient", "method": "EACN values provide information on polarity and surface activity of apolar ingredients. Tchakalova and Fieber (J. of Surfactants and Detergents, 2012, 15(2):167-177) classified perfume ingredients based on values of EACNmix, the EACN of a mixture consisting of a test perfume ingredient and a reference oil (isopropyl myristate). The same model system and method were used to measure the EACN values of perfume ingredients with antimicrobial activities. Different perfume ingredients were added to the model microemulsion system shown in Table 1, in which the nonionic pentaethylene glycol mono n-decyl ether (C10E5) was used as surfactant. Phase transition temperatures of the system from Winsor I to Winsor III, and from Winsor III to Winsor II were determined using a water bath. Alkanes with different alkane carbon numbers (octane, decane, dodecane and hexadecane) were used to establish a linear correlation curve between EACN and the PIT, which is the average of the transitions from Winsor I to Winsor III, and from Winsor III to Winsor II, respectively. EACNmix was then calculated based on the linear relationship and the measured PIT for systems containing different perfume ingredients. The EACN of the pure perfume ingredient was calculated based on the molar ratio of the tested PRMs in the oil phase using following equation: […]\nwherein n and nref are the molar fractions of tested perfume ingredient and the reference ingredient (i.e., isopropyl myristate) in the oil phase, respectively."}, "[2]": {"test_system": "Escherichia coli ATCC 10536", "assay": "Robotic BCT test of perfume ingredients in model surfactant bases", "format": "cell-based", "conditions": "for Log reduction (Log CFU/mL) Base 3: Base 3: SLES 1.5%, coco-glucoside 0.75%; for Log reduction (Log CFU/mL) Base 4: Base 4: SLES 2.25%, sodium xylene sulfonate 3%; for log reduction at 0.5 %: Escherichia coli, ATCC10536, 45 s", "method": "The surfactant bases tested included 1) sodium lauryl ether sulfate (SLES) and cocamidopropyl betaine (CAPB) at 3:1 mass ratios; 2) SLES, CAPB and coco-glucoside at 2:1:1 mass ratios. Test samples were prepared by mixing perfume ingredients with the surfactant bases and vigorously stirred for 24 hrs. Concentration of perfume ingredients in the bases was 0.5% wt. Samples with transparent appearance were selected for antimicrobial testing.\nAntimicrobial efficacy was tested against a representative Gram-negative bacterial strain, Escherichia coli ATCC 10536, using robotic bacteria contact time (BCT) test based on European standard EN-1276 and EP2787827(B1).\nPreparation of screening plate and dilution plate: Aliquots (270 µl) of compositions were dispensed into the wells of a 96-well microtiter plate (MTP) along two columns (B1-H1, and B7-H7), and 270 µl of MilliQ water was added to well A1 and A7 as the control samples. This MTP was labelled as the “Screening plate”. In another MTP, labelled as the “Dilution plate”, 270 µL of Dey-Engley (D/E) neutralizing solution was added to column 1 and column 7. 270 µl of tryptone diluent solution was added to columns 2-6 and columns 8-12 of the Dilution MTP by a Hamilton robotic liquid handling station.\nBCT test & neutralization & dilution: Bacterial stock (30 µl) was then added to columns 1 of the ‘Screening plate’ and mixed by a Hamilton robotic liquid handling station. After a contact time of 45 seconds, 30 µl of the mixtures in column 1 were transferred into the corresponding wells of column 1 of the ‘Dilution plate’. After neutralizing for 5 minutes in the D/E neutralizing solution, 30 µl of the neutralized mixtures were transferred from column 1 to column 2 of the Dilution MTP and mixed, followed by transferring 30 µl of the mixtures from column 2 into column 3. This process was repeated serially diluting the bacteria suspensions across the plate to column 6. Bacterial stock (30 µl) was then added to columns 7 of the ‘Screening plate’ and mixed by a Hamilton robotic liquid handling station. After a contact time of 45 seconds, 30 µl of the mixtures in column 7 were transferred into the corresponding wells of column 7 of the ‘Dilution plate’. After neutralizing for 5 minutes in the D/E neutralizing solution, 30 µl of the mixtures were transferred from column 7 to column 8 of the Dilution MTP and mixed, followed by transferring further 30 µl mixtures from column 8 into column 9. This process was repeated serially diluting the bacteria suspensions across the plate to column 12.\nPlating: 30 µl volumes from each well in the Dilution MTP were transferred onto four Tryptone Soya Agar (TSA) plates. The TSA plates were allowed to stand for about two hours so that the 30 µl inocula spots could dry and the plates were then inverted and incubated overnight at 37° C. for 24 hours. After incubation, colonies were counted.\nCalculating log reduction: Select the dilutions with colony counts, and calculate the viable cell counts (CFU/mL) of mixture in ‘Screening plate’, and log reduction against the control MilliQ sample was calculated."}, "[3]": {"conditions": "0.5% perfume ingredient, CAPB 0.75%, contact 45 s"}, "[4]": {"conditions": "0.5% perfume ingredient, Base 1: SLES 1.875%, CAPB 0.625%, contact 45 s, read-out: Log reduction in Base 1 (Log CFU/mL)"}, "[5]": {"conditions": "0.5% perfume ingredient, Base 2: SLES 2.25%, CAPB 0.75%, contact 45 s, read-out: Log reduction (Log CFU/mL) Base 2"}, "[6]": {"conditions": "model base 1, table by functional group, read-out: Log reduction in Base 1 (Log CFU/mL)"}}, "note": "Structures can show the parent of a compound that is named as a salt. Where two headings read alike, the source gives them in different places."}
{"smiles": "CC/C(=C\\C[C@H]1CC=C(C)C1(C)C)CO", "note": "[(-)-(2E)-2-ethyl-4-[(1R)-2,2,3-trimethyl-3-cyclopenten-1-yl]-2-buten-1-ol]", "values": [{"measurement": "EACN", "setting": "[1]", "result": -23.86}, {"measurement": "Log reduction (Log CFU/mL) Base 3", "setting": "[2]; [3]", "result": "Insoluble"}, {"measurement": "Log reduction (Log CFU/mL) Base 4", "setting": "[2]; [3]", "result": "Insoluble"}, {"measurement": "log reduction at 0.5 %", "setting": "[2]; [4]", "result": -0.2}, {"measurement": "log reduction at 0.5 %", "setting": "[2]; [5]", "result": -1}]}
{"smiles": "CC(C)=CCC/C(C)=C\\CO", "note": "[(Z)-3,7-dimethyl-2,6-octadien-1-ol]", "values": [{"measurement": "EACN", "setting": "[1]", "result": -28.26}, {"measurement": "Log reduction (Log CFU/mL) Base 3", "setting": "[2]; [3]", "result": 4.9, "unit": "Log CFU/mL"}, {"measurement": "Log reduction (Log CFU/mL) Base 4", "setting": "[2]; [3]", "result": 4.5, "unit": "Log CFU/mL"}, {"measurement": "log reduction at 0.5 %", "setting": "[2]; [4]", "result": "> 5.4"}, {"measurement": "log reduction at 0.5 %", "setting": "[2]; [5]", "result": 0.5}, {"measurement": "log reduction at 0.5 %", "setting": "[2]; [6]", "result": "> 5.5"}]}
{"smiles": "CC(C)=CCC/C(C)=C\\C=O", "note": "[(2Z)-3,7-dimethyl-2,6-octadienal OR (2E)-3,7-dimethyl-2,6-octadienal]", "values": [{"measurement": "EACN", "setting": "[1]", "result": -5.09}]}
{"smiles": "CC1=CC(C)C(CO)C(C)C1", "note": "(racemic) [(+-)-2,4,6-trimethyl-3-cyclohexene-1-methanol]", "values": [{"measurement": "EACN", "setting": "[1]", "result": -25.02}]}
{"smiles": "CC(C)(C)C1CCC(=O)CC1", "note": "[4-(2-methyl-2-propanyl)cyclohexanone]", "values": [{"measurement": "EACN", "setting": "[1]", "result": -3.78}]}
{"smiles": "Cc1ccc2c(c1)CC(C)(CO)C2", "note": "(racemic) [(+-)-2,5-dimethyl-2-indanmethanol]", "values": [{"measurement": "EACN", "setting": "[1]", "result": -33.01}]}
{"smiles": "O=COCCc1ccccc1", "note": "[2-phenylethyl formate]", "values": [{"measurement": "EACN", "setting": "[1]", "result": -6.21}, {"measurement": "log reduction at 0.5 %", "setting": "[2]; [4]", "result": 0.3}]}
{"smiles": "CCCCCCCCCCC=O", "note": "[undecanal]", "values": [{"measurement": "EACN", "setting": "[1]", "result": 4.59}]}
{"smiles": "CC(=O)OC(C)c1ccccc1", "note": "(racemic) [(+-)-1-phenylethyl acetate]", "values": [{"measurement": "EACN", "setting": "[1]", "result": -0.99}, {"measurement": "Log reduction (Log CFU/mL) Base 3", "setting": "[2]; [3]", "result": 0.2, "unit": "Log CFU/mL"}, {"measurement": "Log reduction (Log CFU/mL) Base 4", "setting": "[2]; [3]", "result": "Insoluble"}, {"measurement": "log reduction at 0.5 %", "setting": "[2]; [4]", "result": "0.6 ± 1"}, {"measurement": "log reduction at 0.5 %", "setting": "[2]; [5]", "result": 0}]}
{"smiles": "CC(C=O)Cc1ccc2c(c1)OCO2", "note": "(racemic) [(+-)-3-(1,3-benzodioxol-5-yl)-2-methylpropanal]", "values": [{"measurement": "EACN", "setting": "[1]", "result": -11.56}]}
{"smiles": "CC(CO)c1ccccc1", "note": "(racemic) [(+-)-2-phenyl-1-propanol]", "values": [{"measurement": "EACN", "setting": "[1]", "result": -29.67}, {"measurement": "log reduction at 0.5 %", "setting": "[2]; [4]", "result": -0.3}]}
{"smiles": "CC/C=C\\CC/C=C/CO", "note": "[(2E,6Z)-2,6-nonadien-1-ol]", "values": [{"measurement": "EACN", "setting": "[1]", "result": -35.12}, {"measurement": "Log reduction (Log CFU/mL) Base 3", "setting": "[2]; [3]", "result": 3.9, "unit": "Log CFU/mL"}, {"measurement": "Log reduction (Log CFU/mL) Base 4", "setting": "[2]; [3]", "result": ">4.5", "unit": "Log CFU/mL"}, {"measurement": "log reduction at 0.5 %", "setting": "[2]; [4]", "result": 5.6}, {"measurement": "log reduction at 0.5 %", "setting": "[2]; [5]", "result": 0.5}, {"measurement": "log reduction at 0.5 %", "setting": "[2]; [6]", "result": "> 5.5"}]}
{"smiles": "CCOC(=O)Cc1ccccc1", "note": "[ethyl phenylacetate]", "values": [{"measurement": "EACN", "setting": "[1]", "result": -7.26}]}
{"smiles": "CC/C=C\\CC1=C(C)CCC1=O", "note": "[3-methyl-2-[(2Z)-2-penten-1-yl]-2-cyclopenten-1-one]", "values": [{"measurement": "EACN", "setting": "[1]", "result": -8.51}]}
{"smiles": "CCCCCC1CCCC(=O)O1", "note": "(racemic) [(+-)-6-pentyltetrahydro-2H-pyran-2-one]", "values": [{"measurement": "EACN", "setting": "[1]", "result": -13.27}]}
{"smiles": "CC1=CCC(C(C)(C)O)CC1", "note": "(racemic) [(+-)-alpha-terpineol]", "values": [{"measurement": "EACN", "setting": "[1]", "result": -16.69}, {"measurement": "log reduction at 0.5 %", "setting": "[2]; [4]", "result": 1.6}]}
{"smiles": "CCCc1ccc2c(c1)OCC(=O)CO2", "note": "[7-propyl-2H,4H-1,5-benzodioxepin-3-one]", "values": [{"measurement": "EACN", "setting": "[1]", "result": -40.99}, {"measurement": "log reduction at 0.5 %", "setting": "[2]; [4]", "result": 0}]}
{"smiles": "C/C=C/c1ccc(O)c(OC)c1", "note": "[2-methoxy-4-[(1E)-1-propen-1-yl]phenol]", "values": [{"measurement": "EACN", "setting": "[1]", "result": -42.88}, {"measurement": "log reduction at 0.5 %", "setting": "[2]; [4]", "result": 0}]}
